Holding throughout (assay): DTP human tumour cell line panel, 48 h
Test [1] deals with NCI-H23.
Test [2] relates to NCI-H522.
Test [3] concerns A549.
Test [4] relates to MOLT-4.
The test system of test [5] is UO-31.
Test [6] relates to A498.
Test [7] has as its system OVCAR-5.
The test system of test [8] is SF-268.
Test [9] has as its system RXF 393.
Test [10] relates to HCC 2998.
In test [11] the test system is LOX IMVI.
Test [12] has as its system CAKI-1.
Test [13] relates to CCRF-CEM.
Test [14] concerns SN12C.
Test [15] deals with EKVX.
In test [16] the test system is SW-620.
In test [17] the test system is OVCAR-8.
In test [18] the test system is SNB-19.

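Each compound was tested at five concentrations against cells in 96-well plates for 48 hours. GI50 is the concentration that inhibits growth by half.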 Activity calls are given as the source filed them. Rule as the data show it: active = GI50 up to about 1.1 µM and inactive = higher. Where only a bound is given, the exact number is not on record here.

Results on twelve compounds are retold here after ChEMBL document CHEMBL1201862, “PubChem BioAssay data set” (2004).

Turning to `Cn1c(CCC#N)nc2ccc(Br)cc2c1=O`, the GI50 in test [1] is 41.7 µM (inactive); in test [2], > 100 µM (inactive); in test [3] it was > 100 µM (inactive); in test [4], > 100 µM (inactive); in [5], > 100 µM (inactive); in test [6] it was > 100 µM (inactive). The GI50 in test [7], in test [8], in test [9], in test [10], in test [11] and in test [12] was > 100 µM (inactive) in each case. Moreover, the GI50 is 51.9 µM (inactive) in [13]; > 100 µM (inactive) in [14]; > 100 µM (inactive) in test [15]; > 100 µM (inactive) in test [16]; > 100 µM (inactive) in test [17].
Turning to `N#CC(C#N)=C1NN=C(Cl)c2ccccc21`, the GI50 in test [1] was 59.4 µM (inactive); in [2] it was 72.1 µM (inactive); in [3] it was > 100 µM (inactive); in [4] it was > 100 µM (inactive); in [5] it was 50.7 µM (inactive); in [7] it was > 100 µM (inactive). Further, the GI50 was 72.9 µM (inactive) in test [8]; > 100 µM (inactive) in [9]; > 100 µM (inactive) in test [10]; > 100 µM (inactive) in test [11]; > 100 µM (inactive) in test [12]; 88.1 µM (inactive) in test [13]. In addition, the GI50 in test [14] was 96.4 µM (inactive); in test [15], > 100 µM (inactive); in test [16], > 100 µM (inactive); in [17], > 100 µM (inactive).
Turning to `Cc1cc2c(=O)cc(-c3ccc(C(=O)O)cc3)oc2c(C(N)=O)c1C`, the GI50 in [1], in test [2], in test [3], in test [4], in [5] and in [6] was > 100 µM (inactive) each time. The GI50 in test [7], in test [8], in [18], in test [10], in [11] and in [13] was > 100 µM (inactive) in each case. In addition, the GI50 in test [14], in [15], in test [16] and in test [17] was > 100 µM (inactive) throughout.
With `CC1CN1c1c(C(=O)/C=C/c2ccccc2)c(-c2ccccc2)nn(C)c1=O` (stereo not drawn), the GI50 in [1] was 16.6 µM (inactive); in [2] it was 13.4 µM (inactive); in [3] it was 28.6 µM (inactive); in [4], 15.2 µM (inactive); in test [5], 15.5 µM (inactive); in test [6], 17.7 µM (inactive). In addition, the GI50 in test [7] is 20.3 µM (inactive); in test [8], 27.9 µM (inactive); in test [18], 24.4 µM (inactive); in [9], 24.7 µM (inactive); in [10], 16.4 µM (inactive); in test [11], 15.6 µM (inactive). The GI50 in [12] was 37.4 µM (inactive); in test [13], 13.4 µM (inactive); in [14], 17.7 µM (inactive); in test [15] it was 17.3 µM (inactive); in test [16], 18.2 µM (inactive); in test [17] it was 19.1 µM (inactive).
Regarding `COC(=O)c1c(OC)cccc1C(=O)O`, the GI50 in test [1], in test [2], in test [3], in test [4], in [5] and in test [6] was > 100 µM (inactive) in each case. Besides, the GI50 in test [7], in test [8], in [18], in test [9], in test [10] and in test [12] was > 100 µM (inactive) throughout. The GI50 in test [13], in test [14], in test [15], in test [16] and in test [17] was > 100 µM (inactive) throughout.
Take `CN(C)c1ccc(/C=C/C(=O)c2ccccc2)cc1Br`: the GI50 is 16.5 µM (inactive) in test [1]; 15 µM (inactive) in [2]; 34.9 µM (inactive) in [3]; 23 µM (inactive) in test [4]; 18.5 µM (inactive) in [5]; > 100 µM (inactive) in [6]. Moreover, the GI50 in test [7] was 49.3 µM (inactive); in test [8] it was 18.2 µM (inactive); in [18], 18.8 µM (inactive); in test [10], 19.2 µM (inactive); in [12] it was 16.3 µM (inactive); in test [13] it was 20.5 µM (inactive). Besides, the GI50 in test [14] is 21.1 µM (inactive); in [15], > 100 µM (inactive); in [16], 19.9 µM (inactive); in test [17], 23.2 µM (inactive).
Consider `CCC(=O)N1C(=O)OCC1C(C)C` (stereo not drawn), for which the GI50 in test [1], in test [3], in [4], in [5], in test [6] and in test [7] was > 100 µM (inactive) throughout. The GI50 in [8], in test [18], in [9], in test [10], in test [11] and in [12] was > 100 µM (inactive) each time. Moreover, the GI50 in test [13], in [14], in test [15], in test [16] and in [17] was > 100 µM (inactive) throughout.
As for `Clc1ccc(/C=C/c2csnn2)cc1`, the GI50 in test [1], in [2], in test [3], in test [4], in test [5] and in test [6] was > 100 µM (inactive) in each case. The GI50 in test [7], in test [8], in test [18], in test [9], in test [10] and in [11] was > 100 µM (inactive) in each case. For the same compound, the GI50 in test [12], in test [13], in test [14], in test [15], in test [16] and in [17] was > 100 µM (inactive) each time.
`C[C@H]1NC(=O)C2CCCCN2C(=O)CN(C)C(=O)CNC(=O)C2CCCCN2C(=O)[C@@H](NC(=O)c2nc3ccccc3cc2O)[C@@H](C)NC(=O)C2CCCCN2C(=O)CN(C)C(=O)CNC(=O)[C@@H]2CCCCN2C(=O)C1NC(=O)c1nc2ccccc2cc1O` (stereo partly drawn): the GI50 in [1] is 0.242 µM (active); in test [2], 0.106 µM (active); in test [3] it was 0.318 µM (active); in test [4], 2.59 µM (inactive); in test [5], 0.25 µM (active); in [6], 0.166 µM (active). For the same compound, the GI50 was 1.91 µM (inactive) in [7]; 0.186 µM (active) in test [8]; 0.241 µM (active) in [18]; 0.0463 µM (active) in test [9]; 0.204 µM (active) in test [10]; 0.169 µM (active) in test [11]. The GI50 in test [12] is 0.136 µM (active); in test [13], 1.02 µM (active); in [14] it was 0.313 µM (active); in test [15], 0.668 µM (active); in test [16], 0.225 µM (active); in test [17] it was 0.193 µM (active).
As for `CCCCCCCCCCCCCC(=O)CSCCNC(=O)CCNC(=O)[C@@H](O)C(C)(C)COP(=O)(O)OP(=O)(O)OCC1OC(n2cnc3c(N)ncnc32)C(O)C1OP(=O)(O)O` (stereo partly drawn), the GI50 in test [1] was 18.7 µM (inactive); in test [2] it was 10.6 µM (inactive); in [3], 20.1 µM (inactive); in test [5], 14.4 µM (inactive); in test [6] it was 18.4 µM (inactive); in test [7], 32.4 µM (inactive). The GI50 in test [8] was 20 µM (inactive); in test [18] it was 18.6 µM (inactive); in test [9], 25 µM (inactive); in test [10], 16.5 µM (inactive); in test [11], 18.4 µM (inactive); in [13], 24.4 µM (inactive). Also, the GI50 was 16.4 µM (inactive) in test [14], 17.9 µM (inactive) in test [15], 19.4 µM (inactive) in [16] and 27.4 µM (inactive) in test [17].
As to `COC1=CC(C)C2C[C@H]3O[C@H](O)C[C@H]4C(C)C(=O)C(O)C([C@@]2(C)C1=O)[C@@]34C` (stereo partly drawn), the GI50 in test [1], in test [2], in test [3], in test [4], in test [5] and in test [6] was > 100 µM (inactive) each time. For the same compound, the GI50 in test [9], in [10], in test [11], in test [12], in test [13] and in test [14] was > 100 µM (inactive) in each case. The GI50 in test [15], in test [16] and in test [17] was > 100 µM (inactive) throughout.
For the compound `CC(C)c1ccc(C(c2ccc(OCC(=O)O)cc2)c2ccc(C(C)C)cc(=O)c2O)c(O)c(=O)c1`, the GI50 in test [1] is 3.78 µM (inactive); in [3], 3.48 µM (inactive); in [4] it was 3.73 µM (inactive); in test [6], 23.9 µM (inactive); in test [18], 5.89 µM (inactive); in test [9], 10.2 µM (inactive). Further, the GI50 in [10] was 4.94 µM (inactive); in test [11], 3.71 µM (inactive); in test [12], 3.82 µM (inactive); in test [13], 4.05 µM (inactive); in test [14] it was 4.15 µM (inactive); in [15], 4.93 µM (inactive). For the same compound, the values for the GI50 in test [16] and in test [17] were 4.8 µM (inactive) and 4.44 µM (inactive), respectively.
